# Assay results as given in patent US20240262826A1, “WILD TYPE KIT INHIBITORS” (Blueprint Medicines Corporation, priority 2022, published 2024).
# pIC50: −log10 of the molar value.
# Assays:
# wild type c-kit = wild type c-kit (Homo sapiens (Human), UniProt P10721); assay: PathScan phospho c-kit (Tyr719) sandwich ELISA in SCF-stimulated M-07e cells (pKIT assay); assay type: cell-based; conditions: ELISA assay (values not marked *)
# Procedure, shortened: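 Tyr719-phosphorylated c-kit was measured by colorimetric (TMB) sandwich ELISA in lysates of M-07e cells. Cells were starved 4 h without serum or GM-CSF, dosed 60 min at 37 °C with compound (8 points, duplicate, 0.25% DMSO), and stimulated 10 min with human SCF (500 ng/mL as added). IC50 values came from 4-parameter logistic regression.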
# [1] = biological target: human P-glycoprotein (P-gp, MDR1) (Homo sapiens (Human), UniProt P08183); assay: MDCK-MDR1 cell monolayer drug transport assay (P-gp efflux ratio); assay type: in vitro ADME; conditions: pH 7.4, MDCK-MDR1 cells; for efflux ratio at 2 h, 1 µM: 1 uM concentration of compound, read-out: Pgp Efflux Ratio, 1 uM
# Procedure, shortened: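 P-gp substrate potential tested in MDCK-MDR1 monolayers on Transwell supports, cultured 4-8 days; monolayers with TEER <42 ohms·cm2 discarded. Transport run in HBSS (10 mM HEPES, pH 7.4) at 37° C with compound working solution at 1 μM.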
# wild type c-kit, sequence (P10721 26-976): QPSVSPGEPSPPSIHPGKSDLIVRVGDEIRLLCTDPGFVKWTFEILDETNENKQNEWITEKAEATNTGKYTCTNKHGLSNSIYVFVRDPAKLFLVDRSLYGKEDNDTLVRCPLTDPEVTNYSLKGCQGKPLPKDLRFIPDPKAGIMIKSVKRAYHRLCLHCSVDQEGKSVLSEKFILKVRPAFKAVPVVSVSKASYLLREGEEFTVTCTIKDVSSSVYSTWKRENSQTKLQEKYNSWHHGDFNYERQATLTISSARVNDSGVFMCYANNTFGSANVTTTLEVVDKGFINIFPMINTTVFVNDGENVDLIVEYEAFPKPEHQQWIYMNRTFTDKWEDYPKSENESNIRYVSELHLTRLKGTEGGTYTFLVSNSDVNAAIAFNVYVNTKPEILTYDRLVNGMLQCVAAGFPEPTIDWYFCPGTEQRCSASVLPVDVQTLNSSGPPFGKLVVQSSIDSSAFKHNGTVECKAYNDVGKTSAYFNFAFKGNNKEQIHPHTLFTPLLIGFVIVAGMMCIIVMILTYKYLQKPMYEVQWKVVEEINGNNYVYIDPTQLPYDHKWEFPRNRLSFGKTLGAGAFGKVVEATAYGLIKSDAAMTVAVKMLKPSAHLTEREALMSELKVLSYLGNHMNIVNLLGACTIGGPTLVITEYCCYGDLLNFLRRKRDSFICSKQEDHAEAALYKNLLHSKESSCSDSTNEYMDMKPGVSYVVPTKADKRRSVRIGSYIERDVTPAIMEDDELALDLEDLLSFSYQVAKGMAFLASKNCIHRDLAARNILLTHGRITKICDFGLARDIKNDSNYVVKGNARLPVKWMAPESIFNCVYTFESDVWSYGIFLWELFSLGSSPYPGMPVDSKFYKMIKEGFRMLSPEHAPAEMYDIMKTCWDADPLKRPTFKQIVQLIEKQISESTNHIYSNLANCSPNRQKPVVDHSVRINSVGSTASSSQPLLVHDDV
# human P-glycoprotein (P-gp, MDR1), sequence (P08183 whole entry): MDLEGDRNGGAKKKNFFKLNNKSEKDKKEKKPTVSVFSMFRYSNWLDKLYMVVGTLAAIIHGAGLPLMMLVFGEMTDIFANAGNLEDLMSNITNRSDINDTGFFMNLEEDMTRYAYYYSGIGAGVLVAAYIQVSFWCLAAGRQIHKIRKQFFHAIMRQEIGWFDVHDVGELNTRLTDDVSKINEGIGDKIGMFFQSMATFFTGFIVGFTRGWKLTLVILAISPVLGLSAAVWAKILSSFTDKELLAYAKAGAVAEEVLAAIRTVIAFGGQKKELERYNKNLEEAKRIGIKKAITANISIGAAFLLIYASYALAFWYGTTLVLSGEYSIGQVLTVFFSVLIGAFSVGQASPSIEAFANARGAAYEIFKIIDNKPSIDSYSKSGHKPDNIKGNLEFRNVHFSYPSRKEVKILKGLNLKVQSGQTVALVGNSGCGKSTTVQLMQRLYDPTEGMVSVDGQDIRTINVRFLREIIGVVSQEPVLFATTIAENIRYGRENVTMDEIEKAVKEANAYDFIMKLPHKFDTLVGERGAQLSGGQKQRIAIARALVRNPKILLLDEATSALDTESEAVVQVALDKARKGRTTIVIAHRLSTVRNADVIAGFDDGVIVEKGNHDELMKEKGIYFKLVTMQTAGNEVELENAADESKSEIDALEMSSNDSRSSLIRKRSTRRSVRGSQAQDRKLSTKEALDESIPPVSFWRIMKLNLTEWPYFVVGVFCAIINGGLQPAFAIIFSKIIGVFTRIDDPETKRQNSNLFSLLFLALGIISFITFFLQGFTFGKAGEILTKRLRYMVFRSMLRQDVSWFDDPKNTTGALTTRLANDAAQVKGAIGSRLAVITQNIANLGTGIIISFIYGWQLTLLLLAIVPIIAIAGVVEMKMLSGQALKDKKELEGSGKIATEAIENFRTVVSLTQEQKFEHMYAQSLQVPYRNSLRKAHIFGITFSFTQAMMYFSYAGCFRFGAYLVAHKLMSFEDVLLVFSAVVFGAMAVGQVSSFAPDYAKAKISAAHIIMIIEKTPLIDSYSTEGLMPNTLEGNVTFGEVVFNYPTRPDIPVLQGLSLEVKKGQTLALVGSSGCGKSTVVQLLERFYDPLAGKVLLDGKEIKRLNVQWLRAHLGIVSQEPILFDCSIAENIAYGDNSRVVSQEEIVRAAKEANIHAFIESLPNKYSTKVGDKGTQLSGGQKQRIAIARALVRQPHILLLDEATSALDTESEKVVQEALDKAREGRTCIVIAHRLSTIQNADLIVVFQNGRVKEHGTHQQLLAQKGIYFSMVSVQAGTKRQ
Structure (SMILES),pIC50 (wild type c-kit),"efflux ratio at 2 h, 1 µM [1]","efflux ratio at 2 h, 0.1 µM ([1]; 0.1 uM concentration of compound (denoted by **), read-out: Pgp Efflux Ratio)"
"COC(=O)N1CC(n2nnc(-c3ccc(C)c(NC(=O)c4cnn5ccc(N6CC7(COC7)C6)cc45)c3)n2)C1 [Example 98, methyl 3-(5-(3-(5-(2-oxa-6-azaspiro[3.3]heptan-6-yl)pyrazolo[1,5-a]pyridine-3-carboxamido)-4-methylphenyl)-2H-tetrazol-2-yl)azetidine-1-carboxylate]",7.32,15.5,
"Cc1cc(Cl)c(NC(=O)c2cnn3ccc(-c4cnn(CC(C)(C)O)c4)cc23)cc1-c1nnn(C2CC2)n1 [Example 227, N-(2-chloro-5-(2-cyclopropyl-2H-tetrazol-5-yl)-4-methylphenyl)-5-(1-(2-hydroxy-2-methylpropyl)-1H-pyrazol-4-yl)pyrazolo[1,5-a]pyridine-3-carboxamide]",8.72,,5
"COC[C@](C)(O)Cn1cc(-c2ccn3ncc(C(=O)Nc4cc(-c5nnn(C6CC6)n5)ccc4C)c3c2)cn1 (single isomer, unassigned) [Example 267, (R)-N-(5-(2-cyclopropyl-2H-tetrazol-5-yl)-2-methylphenyl)-5-(1-(2-hydroxy-3-methoxy-2-methylpropyl)-1H-pyrazol-4-yl)pyrazolo[1,5-a]pyridine-3-carboxamide or (S)-N-(5-(2-cyclopropyl-2H-tetrazol-5-yl)-2-methylphenyl)-5-(1-(2-hydroxy-3-methoxy-2-methylpropyl)-1H-pyrazol-4-yl)pyrazolo[1,5-a]pyridine-3-carboxamide]",8.85,2.9,
"COC(=O)N1CC(n2nnc(-c3ccc(C)c(NC(=O)c4cnn5ccc(N6CCN(C)CC6)cc45)c3)n2)C1 [Example 66, methyl 3-(5-(4-methyl-3-(5-(4-methylpiperazin-1-yl)pyrazolo[1,5-a]pyridine-3-carboxamido)phenyl)-2H-tetrazol-2-yl)azetidine-1-carboxylate]",7.19,13.5,
"CCOC(=O)N1CC(n2nnc(-c3ccc(C)c(NC(=O)c4cnn5ccc(NCCOC)cc45)c3)n2)C1 [Example 149, ethyl 3-(5-(3-(5-((2-methoxyethyl)amino)pyrazolo[1,5-a]pyridine-3-carboxamido)-4-methylphenyl)-2H-tetrazol-2-yl)azetidine-1-carboxylate]",7.41,30.1,
"COCCNc1cc2c(C(=O)Nc3cc(-c4nnn(C5CN(C(=O)OC)C5)n4)ccc3C)cnn2cc1F [Example 171, methyl 3-(5-(3-(6-fluoro-5-((2-methoxyethyl)amino)pyrazolo[1,5-a]pyridine-3-carboxamido)-4-methylphenyl)-2H-tetrazol-2-yl)azetidine-1-carboxylate]",7.46,6,
"COCCNc1cc2c(C(=O)Nc3cc(-c4nnn(C5CN(C(=O)OC)C5)n4)ccc3C)cnn2cc1Cl [Example 145, methyl 3-(5-(3-(6-chloro-5-((2-methoxyethyl)amino)pyrazolo[1,5-a]pyridine-3-carboxamido)-4-methylphenyl)-2H-tetrazol-2-yl)azetidine-1-carboxylate]",6.80,6.4,
"COC(=O)N1CC(c2cnn(-c3ccc(C)c(NC(=O)c4cnn5ccc(N(C)CCO)cc45)c3)n2)C1 [Example 84, methyl 3-(2-(3-(5-((2-hydroxyethyl)(methyl)amino)pyrazolo[1,5-a]pyridine-3-carboxamido)-4-methylphenyl)-2H-1,2,3-triazol-4-yl)azetidine-1-carboxylate]",7.66,51.9,
"Cc1cc(F)c(-c2nnn([C@H]3C[C@@H](C(F)(F)F)C3)n2)cc1NC(=O)c1cnn2ccc(N3CC(C)(O)C3)cc12 [Example 64, N-(4-fluoro-2-methyl-5-(2-((1s,3s)-3-(trifluoromethyl)cyclobutyl)-2H-tetrazol-5-yl)phenyl)-5-(3-hydroxy-3-methylazetidin-1-yl)pyrazolo[1,5-a]pyridine-3-carboxamide]",8.43,39.3,
"Cc1cnn(-c2ccc(C)c(NC(=O)c3cnn4ccc(-c5cnn(CCO)c5)cc34)c2)n1 [Example 57, 5-(1-(2-hydroxyethyl)-1H-pyrazol-4-yl)-N-(2-methyl-5-(4-methyl-2H-1,2,3-triazol-2-yl)phenyl)pyrazolo[1,5-a]pyridine-3-carboxamide]",8.40,3.4,
"CCOC(=O)N1CC(n2nnc(-c3ccc(C)c(NC(=O)c4cnn5ccc(NC)cc45)c3)n2)C1 [Example 126, ethyl 3-(5-(4-methyl-3-(5-(methylamino)pyrazolo[1,5-a]pyridine-3-carboxamido)phenyl)-2H-tetrazol-2-yl)azetidine-1-carboxylate]",7.99,15.9,

# Next, values leading:
pIC50 (wild type c-kit),"efflux ratio at 2 h, 1 µM [1]","efflux ratio at 2 h, 0.1 µM ([1]; 0.1 uM concentration of compound (denoted by **), read-out: Pgp Efflux Ratio)",Structure (SMILES)
8.77,3.3,,"Cc1ccc(-n2nnc(C3CC3)n2)cc1NC(=O)c1cnn2ccc(-c3cnn(CC(C)(C)O)c3)cc12 [Example 225, N-(5-(5-cyclopropyl-2H-tetrazol-2-yl)-2-methylphenyl)-5-(1-(2-hydroxy-2-methylpropyl)-1H-pyrazol-4-yl)pyrazolo[1,5-a]pyridine-3-carboxamide]"
9.15,8.9,,"COC[C@@H](O)Cn1cc(-c2ccn3ncc(C(=O)Nc4cc(-c5nnn(C6CC6)n5)c(F)cc4C)c3c2)c(C2CC2)n1 [Example 257, (S)-5-(3-cyclopropyl-1-(2-hydroxy-3-methoxypropyl)-1H-pyrazol-4-yl)-N-(5-(2-cyclopropyl-2H-tetrazol-5-yl)-4-fluoro-2-methylphenyl)pyrazolo[1,5-a]pyridine-3-carboxamide]"
9.30,3,,"Cc1ccc(-n2nnc(C3CC3)n2)cc1NC(=O)c1cnn2cc(-c3cnn(CC4(O)CCOCC4)c3)cc(F)c12 [Example 277, N-(5-(5-cyclopropyl-2H-tetrazol-2-yl)-2-methylphenyl)-4-fluoro-6-(1-((4-hydroxytetrahydro-2H-pyran-4-yl)methyl)-1H-pyrazol-4-yl)pyrazolo[1,5-a]pyridine-3-carboxamide]"
6.90,4.1,,"COCCCc1ccn2ncc(C(=O)Nc3cc(-c4nnn(C5CN(C(=O)OC)C5)n4)ccc3C)c2c1 [Example 58, methyl 3-(5-(3-(5-(3-methoxypropyl)pyrazolo[1,5-a]pyridine-3-carboxamido)-4-methylphenyl)-2H-tetrazol-2-yl)azetidine-1-carboxylate]"
9.10,2.3,,"COC[C@@H](O)Cn1nc(C)c(-c2ccn3ncc(C(=O)Nc4cc(-c5nnn(C)n5)ccc4C)c3c2)c1C [Example 245, (S)-5-(1-(2-hydroxy-3-methoxypropyl)-3,5-dimethyl-1H-pyrazol-4-yl)-N-(2-methyl-5-(2-methyl-2H-tetrazol-5-yl)phenyl)pyrazolo[1,5-a]pyridine-3-carboxamide]"
8.24,37.4,,"Cc1ccc(-c2nnn([C@H]3C[C@@H](C(F)(F)F)C3)n2)cc1NC(=O)c1cnn2ccc(N3CCN(CCO)CC3)cc12 [Example 106, 5-(4-(2-hydroxyethyl)piperazin-1-yl)-N-(2-methyl-5-(2-((1s,3s)-3-(trifluoromethyl)cyclobutyl)-2H-tetrazol-5-yl)phenyl)pyrazolo[1,5-a]pyridine-3-carboxamide]"
8.85,16.2,,"Cc1cc(F)c(-c2nnn(C3CC3)n2)cc1NC(=O)c1cnn2ccc(-c3cnn(CC(C)(C)O)c3)cc12 [Example 207, N-(5-(2-cyclopropyl-2H-tetrazol-5-yl)-4-fluoro-2-methylphenyl)-5-(1-(2-hydroxy-2-methylpropyl)-1H-pyrazol-4-yl)pyrazolo[1,5-a]pyridine-3-carboxamide]"
8.21,11,,"Cc1ccc(-c2nnn(C3CC(F)(F)C3)n2)cc1NC(=O)c1cnn2ccc(N3CC[C@H](O)C3)cc12 [Example 62, (S)-N-(5-(2-(3,3-difluorocyclobutyl)-2H-tetrazol-5-yl)-2-methylphenyl)-5-(3-hydroxypyrrolidin-1-yl)pyrazolo[1,5-a]pyridine-3-carboxamide]"
7.73,37.6,,"Cc1ccc(-c2nnn(C3CN(S(C)(=O)=O)C3)n2)cc1NC(=O)c1cnn2ccc(COCC(F)F)cc12 [Example 154, 5-((2,2-difluoroethoxy)methyl)-N-(2-methyl-5-(2-(1-(methylsulfonyl)azetidin-3-yl)-2H-tetrazol-5-yl)phenyl)pyrazolo[1,5-a]pyridine-3-carboxamide]"
7.52,21.5,,"COC(=O)N1CC(n2nnc(-c3ccc(C)c(NC(=O)c4cnn5ccc(NCC6CCO6)cc45)c3)n2)C1 (stereo not shown) [Example 95, methyl 3-(5-(4-methyl-3-(5-((oxetan-2-ylmethyl)amino)pyrazolo[1,5-a]pyridine-3-carboxamido)phenyl)-2H-tetrazol-2-yl)azetidine-1-carboxylate]"
8.19,3.4,,"COCCNc1ccn2ncc(C(=O)Nc3cc(-n4nnc(C5CN(C(=O)OC)C5)n4)ccc3Cl)c2c1 [Example 113, methyl 3-(2-(4-chloro-3-(5-((2-methoxyethyl)amino)pyrazolo[1,5-a]pyridine-3-carboxamido)phenyl)-2H-tetrazol-5-yl)azetidine-1-carboxylate]"
7.83,19.1,,"COCCNc1ccn2ncc(C(=O)Nc3cc(-c4nnn([C@H]5C[C@H](CO)C5)n4)c(F)cc3C)c2c1 [Example 202, N-(4-fluoro-5-(2-((1r,3r)-3-(hydroxymethyl)cyclobutyl)-2H-tetrazol-5-yl)-2-methylphenyl)-5-((2-methoxyethyl)amino)pyrazolo[1,5-a]pyridine-3-carboxamide]"
